Experimental data from PubChem BioAssay (NCI).
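Cultured in 96-well plates, cells were exposed to test compound for 48 hours across five concentrations. The concentration for full growth arrest is given as TGI.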

Legend:
Assay in all cases: inhibition of tumour cell growth, NCI panel, 48 h
HT29 colon = test system: HT29 colon
SF-539 CNS = test system: SF-539 CNS
HCT-15 colon = test system: HCT-15 colon
SK-MEL-2 melanoma = test system: SK-MEL-2 melanoma
HCT-116 colon = test system: HCT-116 colon
RPMI-8226 leukemia = test system: RPMI-8226 leukemia
OVCAR-5 ovarian = test system: OVCAR-5 ovarian
K-562 leukemia = test system: K-562 leukemia
SNB-75 CNS = test system: SNB-75 CNS
UACC-62 melanoma = test system: UACC-62 melanoma
M14 melanoma = test system: M14 melanoma
HL-60(TB) leukemia = test system: HL-60(TB) leukemia
MCF7 breast = test system: MCF7 breast
SN12C renal = test system: SN12C renal
IGROV1 ovarian = test system: IGROV1 ovarian
SR leukemia = test system: SR leukemia

## Cc1ccc(NC(=O)/C(=N/N(C)C)C(C2OC(=O)c3ccccc32)[N+](=O)[O-])cc1 (stereo not given)
HT29 colon
  TGI: > 100 µM
SF-539 CNS
  TGI: > 100 µM
HCT-15 colon
  TGI: > 100 µM
SK-MEL-2 melanoma
  TGI: > 100 µM
HCT-116 colon
  TGI: > 100 µM
RPMI-8226 leukemia
  TGI: > 100 µM
OVCAR-5 ovarian
  TGI: > 100 µM
K-562 leukemia
  TGI: > 100 µM
SNB-75 CNS
  TGI: > 100 µM
UACC-62 melanoma
  TGI: > 100 µM
M14 melanoma
  TGI: > 100 µM
HL-60(TB) leukemia
  TGI: > 100 µM
MCF7 breast
  TGI: > 100 µM
SN12C renal
  TGI: > 100 µM

## CCOC(=O)C(C)c1nc2ccc(C(F)(F)F)cc2[nH]c1=O (stereo not given)
HT29 colon
  TGI: > 100 µM
SF-539 CNS
  TGI: > 100 µM
HCT-15 colon
  TGI: > 100 µM
SK-MEL-2 melanoma
  TGI: > 100 µM
HCT-116 colon
  TGI: > 100 µM
RPMI-8226 leukemia
  TGI: > 100 µM
OVCAR-5 ovarian
  TGI: > 100 µM
K-562 leukemia
  TGI: > 100 µM
SNB-75 CNS
  TGI: > 100 µM
UACC-62 melanoma
  TGI: > 100 µM
M14 melanoma
  TGI: > 100 µM
HL-60(TB) leukemia
  TGI: > 100 µM
MCF7 breast
  TGI: > 100 µM
SN12C renal
  TGI: > 100 µM

## COc1ccc2[nH]c3c(C)cc([N+](=O)[O-])c(C)c3c2c1
HT29 colon
  TGI: 83.8 µM
SF-539 CNS
  TGI: > 100 µM
HCT-15 colon
  TGI: > 100 µM
IGROV1 ovarian
  TGI: > 100 µM
SK-MEL-2 melanoma
  TGI: 46 µM
HCT-116 colon
  TGI: 58.7 µM
RPMI-8226 leukemia
  TGI: 62.7 µM
K-562 leukemia
  TGI: 44.3 µM
SNB-75 CNS
  TGI: 86.1 µM
SR leukemia
  TGI: 58.5 µM
M14 melanoma
  TGI: 53.2 µM
HL-60(TB) leukemia
  TGI: 50.4 µM
SN12C renal
  TGI: > 100 µM

## O=c1[nH]c(=O)n(C2CC(O)C(CO)O2)cc1C#Cc1ccc(F)cc1 (stereo not given)
HT29 colon
  TGI: > 100 µM
SF-539 CNS
  TGI: > 100 µM
HCT-15 colon
  TGI: > 100 µM
IGROV1 ovarian
  TGI: > 100 µM
SK-MEL-2 melanoma
  TGI: > 100 µM
RPMI-8226 leukemia
  TGI: > 100 µM
OVCAR-5 ovarian
  TGI: > 100 µM
K-562 leukemia
  TGI: > 100 µM
SNB-75 CNS
  TGI: > 100 µM
UACC-62 melanoma
  TGI: > 100 µM
SR leukemia
  TGI: > 100 µM
M14 melanoma
  TGI: > 100 µM
SN12C renal
  TGI: > 100 µM

## CCOC(=O)/C(=C/c1ccc(N(CCC#N)CCC#N)cc1C)NC(=O)/C=C/c1ccccc1
HT29 colon
  TGI: > 100 µM
SF-539 CNS
  TGI: > 100 µM
HCT-15 colon
  TGI: > 100 µM
IGROV1 ovarian
  TGI: > 100 µM
SK-MEL-2 melanoma
  TGI: > 100 µM
HCT-116 colon
  TGI: > 100 µM
RPMI-8226 leukemia
  TGI: > 100 µM
OVCAR-5 ovarian
  TGI: > 100 µM
K-562 leukemia
  TGI: > 100 µM
SNB-75 CNS
  TGI: > 100 µM
UACC-62 melanoma
  TGI: > 100 µM
M14 melanoma
  TGI: > 100 µM
HL-60(TB) leukemia
  TGI: > 100 µM
SN12C renal
  TGI: > 100 µM

## C=CCN(c1cc(OC)c2[nH]c(C(=O)OCC)c(C)c2c1[N+](=O)[O-])S(C)(=O)=O
HT29 colon
  TGI: 35.5 µM
SF-539 CNS
  TGI: > 100 µM
HCT-15 colon
  TGI: > 100 µM
IGROV1 ovarian
  TGI: > 100 µM
SK-MEL-2 melanoma
  TGI: 51.3 µM
HCT-116 colon
  TGI: 58.3 µM
RPMI-8226 leukemia
  TGI: 32.8 µM
OVCAR-5 ovarian
  TGI: 99.1 µM
K-562 leukemia
  TGI: 31.4 µM
SNB-75 CNS
  TGI: 60 µM
UACC-62 melanoma
  TGI: 61.7 µM
M14 melanoma
  TGI: > 100 µM
HL-60(TB) leukemia
  TGI: 46.5 µM
MCF7 breast
  TGI: 52.2 µM
SN12C renal
  TGI: 56.1 µM

## COc1ccc2c3c1OC1C34CCN(C)C(C2)C4=CC(I)C1(OC)OC (stereo not given)
HT29 colon
  TGI: 22 µM
SF-539 CNS
  TGI: 40.6 µM
HCT-15 colon
  TGI: 27.8 µM
IGROV1 ovarian
  TGI: 22.2 µM
SK-MEL-2 melanoma
  TGI: 30.3 µM
HCT-116 colon
  TGI: 14.6 µM
RPMI-8226 leukemia
  TGI: 14.2 µM
OVCAR-5 ovarian
  TGI: 38.4 µM
K-562 leukemia
  TGI: 23.4 µM
SNB-75 CNS
  TGI: 34.5 µM
UACC-62 melanoma
  TGI: 28 µM
SR leukemia
  TGI: 10.2 µM
M14 melanoma
  TGI: 29.6 µM
MCF7 breast
  TGI: 19 µM
SN12C renal
  TGI: 18.9 µM

## O=S(=O)(O)c1ccc2c(N=Nc3ccc(Cl)cc3)c(O)ccc2c1
HT29 colon
  TGI: > 100 µM
HCT-15 colon
  TGI: > 100 µM
IGROV1 ovarian
  TGI: > 100 µM
SK-MEL-2 melanoma
  TGI: > 100 µM
HCT-116 colon
  TGI: > 100 µM
RPMI-8226 leukemia
  TGI: > 100 µM
OVCAR-5 ovarian
  TGI: > 100 µM
K-562 leukemia
  TGI: > 100 µM
SNB-75 CNS
  TGI: > 100 µM
UACC-62 melanoma
  TGI: > 100 µM
M14 melanoma
  TGI: > 100 µM
SN12C renal
  TGI: > 100 µM
